What was measured:
Format in all cases: in vivo, C57BL/6J mice
TRAMP-C1 tumor [1] = assay: ICG fluorescence accumulated in organs and tumor of TRAMP-C1 tumor-bearing mice (IVIS); settings: 48 hours after tail vein injection; ICG 1.6 mg/kg
Experimental: (§1) Please refer to FIGS. 12 and 14. […] To establish tumor model, 2×10^7 TRAMP-C1 cells were subcutaneously injected into the right thigh of mice. Two weeks post-inoculation, the low permeability tumor model was established. Tumor volume (V) was calculated as follows: V=L×W^2/2, where W is the tumor measurement at the widest point and L the tumor dimension at the longest point. […] The fluorescence signals of ICG (Ex. 745 nm and Em. 810 nm) at 2, 4, 6, 24 and 48 h post-injection were collected on the IVIS. The treated mice were then sacrificed and the major organs harvested for individual organ imaging by IVIS. After tail vein injection for 48 hours and observation in vivo experiments, the mouse was sacrificed and its major organs and tumors taken for detecting ICG fluorescent performance of each organ using a non-invasive in vivo imaging system (IVIS).

TRAMP-C1 tumor [2] = assay: Tumor local temperature under 808 nm NIR laser irradiation (infrared thermal imaging camera); settings: 6 hours post-injection; 808 nm laser 1.0 W/cm^2, 5 min; ICG 1.6 mg/kg I.V.
Experimental: (§2) Please refer to FIG. 15. FIG. 15 is a time—temperature figure of the pH-responsive ICG/DOX-loaded NHTPNs of an embodiment in the instant disclosure. […] 6 hours post-injection, the mice (5 in each group) were irradiated at the tumor sites with 808 nm laser (1.0 W/cm^2) for 5 min. The tumor volumes of various groups were measured daily and normalized against the original volumes to assess the antitumor efficacy. The tumor local temperature was monitored by infrared thermal imaging camera.

TRAMP-C1 tumor [3] = assay: Tumor growth inhibition (relative tumor volume over 15 days) in TRAMP-C1 tumor-bearing mice; settings: with NIR laser (+laser)
Experimental: as §1, §2

ICG fluorescent expression in the tumor (TRAMP-C1 tumor [1]): no fluorescent expression in the tumor
organ in which the ICG fluorescence is expressed (TRAMP-C1 tumor [1]): mostly expressed in the liver
SMILES: CC1(C)C(/C=C/C=C/C=C/C=C2\N(CCCCS(=O)(=O)O)c3ccc4ccccc4c3C2(C)C)=[N+](CCCCS(=O)(=O)[O-])c2ccc3ccccc3c21 [Free ICG, indocyanine green]
highest temperature in the tumor (TRAMP-C1 tumor [2]): 41.4 °C
tumor growth inhibition effect (TRAMP-C1 tumor [3]): no significant tumor growth inhibition effect

— patent US9980919B2, “Preparation of pH-responsive nanoparticles and promoted delivery of anticancer drugs into deep tumor tissues and application thereof” (NATIONAL TSING HUA UNIVERSITY, priority 2015, dated 2018)
